Laboratory results as given in patent US7087375B1, “Method for determining the mechanism of HIV RT inhibitors” (priority 2000, dated 2006).
Values joined by “and” are separate entries in the source; they are usually repeats but may differ in a detail not shown here. Equal values may be shown once.

Columns and labels:
[1] = system: HXB2 site-directed mutant D67N, K70R; type: cell-based; conditions: virus D67N
[2] = system: HXB2 site-directed mutant Q151M; type: cell-based; conditions: virus Q151M
[3] = system: HXB2 site-directed mutant T69S-AG; type: cell-based; conditions: virus T69S-AG
[4] = system: HXB2 site-directed mutant M41L, D67N, K70R, M184V, T215Y; type: cell-based; conditions: virus M41L
[5] = system: HXB2 site-directed mutant M41L, T69S-AG, T215Y; type: cell-based; conditions: virus M41L
[6] = system: HXB2 site-directed mutant M41L, M184V, T215Y; type: cell-based; conditions: virus M41L
[7] = system: HXB2 site-directed mutant M41L, T69S-SS, T215Y; type: cell-based; conditions: virus M41L
[8] = system: wild type HXB2 virus; experiment: HIV drug susceptibility assay (recombinant virus, MT-4 cells); conditions: for IC50: Human immunodeficiency virus 1, HXB2, MT4, read-out: mean IC50 for the wild type control virus
[9] = system: HXB2 site-directed mutant M41L, T215Y; type: cell-based; conditions: virus M41L
[10] = system: HXB2 site-directed mutant T69S-SG; type: cell-based; conditions: virus T69S-SG
[11] = system: HXB2 site-directed mutant V75T; type: cell-based; conditions: virus V75T
[12] = system: HXB2 site-directed mutant T69S-SS; type: cell-based; conditions: virus T69S-SS
[13] = system: HXB2 site-directed mutant M41L, T69S-SG, T215Y; type: cell-based; conditions: virus M41L

| Structure (SMILES) | Fold resistance in IC50 relative to HXB2 [1] | Fold resistance in IC50 relative to HXB2 [2] [fold] | Fold resistance in IC50 relative to HXB2 [3] | Fold resistance in IC50 relative to HXB2 [4] | Fold resistance in IC50 relative to HXB2 [5] [fold] | Fold resistance in IC50 relative to HXB2 [6] | Fold resistance in IC50 relative to HXB2 [7] | IC50 [8] [nM] | Fold resistance in IC50 relative to HXB2 [9] | Fold resistance in IC50 relative to HXB2 [10] | Fold resistance in IC50 relative to HXB2 [11] [fold] | Fold resistance in IC50 relative to HXB2 [12] [fold] | Fold resistance in IC50 relative to HXB2 [13] [fold] | Virus Assay fold resistance ([8]; wild type HXB2 virus (reference)) [fold] |
| --- | --- | --- | --- | --- | --- | --- | --- | --- | --- | --- | --- | --- | --- | --- |
| Nc1ccn([C@@H]2CS[C@H](CO)O2)c(=O)n1 [3TC, lamivudine] | 1.2 fold | 2.0 | 4.2 fold | >62 fold | 6.1 | >62 fold | 4.3 fold | 600 | 1.0 fold | 2.9 fold | 3.2 | 5.0 | 11.3 | – |
| Cc1cn([C@H]2C[C@H](N=[N+]=[N-])[C@@H](CO)O2)c(=O)[nH]c1=O [AZT, zidovudine] | 11 fold and 11.2 fold | 2.1 | 7.0 fold and 7.0 (+/−4) fold | 6.4 fold and 6.4 (+/−1.5) fold | >96 | 5.2 fold and 5.2 (+/−1.5) fold | 12 fold and 12.0 fold and 12.0 (+/−2) fold | 12 | 26 fold and 26.2 fold and 26.2 (+/−10) fold | 8.1 fold and 8.1 (+/−4) fold | 1.4 | – | >96 | 1.0 |
